Reference: patent US20260308177A1, “THIAZOLOPYRIDIN-7(4H)-ONE WRN INHIBITORS” (NIMBUS WADJET, INC., priority 2023, published 2026)
Like-named read-outs stand apart in the source and are kept apart here.

Columns and labels:
[1] = biological target: T1, human Werner helicase (WRN-BV08, amino acids 517-1235, L1074F) (Homo sapiens, UniProt Q14191, L1074F); test: WRN (BV08) ADP-Glo Assay (ATPase inhibition); type: biochemical
T1 construct: TEV-cleavable 8×His tag (C, cleaved yes); made in house; host or cells: Sf9 insect cells (baculovirus)
T1 sequence (Q14191 with tags, fused parts or gaps L1074F): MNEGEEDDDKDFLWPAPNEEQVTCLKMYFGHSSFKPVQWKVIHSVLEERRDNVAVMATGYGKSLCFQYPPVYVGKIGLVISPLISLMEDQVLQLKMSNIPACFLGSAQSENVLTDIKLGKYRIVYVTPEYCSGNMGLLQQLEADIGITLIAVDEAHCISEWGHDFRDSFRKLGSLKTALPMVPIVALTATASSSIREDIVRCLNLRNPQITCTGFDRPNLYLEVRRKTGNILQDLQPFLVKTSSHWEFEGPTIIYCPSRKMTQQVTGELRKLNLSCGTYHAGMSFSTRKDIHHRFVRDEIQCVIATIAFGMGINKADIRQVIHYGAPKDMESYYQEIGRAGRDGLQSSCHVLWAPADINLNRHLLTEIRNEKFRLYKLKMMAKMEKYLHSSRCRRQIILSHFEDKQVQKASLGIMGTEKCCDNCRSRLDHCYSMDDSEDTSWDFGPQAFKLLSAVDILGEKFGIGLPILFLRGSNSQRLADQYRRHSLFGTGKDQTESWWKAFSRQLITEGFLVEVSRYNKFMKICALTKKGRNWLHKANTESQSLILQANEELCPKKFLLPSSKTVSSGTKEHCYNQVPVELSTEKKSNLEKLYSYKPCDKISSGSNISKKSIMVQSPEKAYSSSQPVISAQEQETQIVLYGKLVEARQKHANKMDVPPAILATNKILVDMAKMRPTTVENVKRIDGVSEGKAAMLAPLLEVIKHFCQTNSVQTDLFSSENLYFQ
Description: Example 2: WRN (BV08) ADP-Glo Assay Protocol
Bovine skin gelatin (BSG), dimethyl sulfoxide (DMSO), Pluronic F-127 and tris(2-carboxyethyl)phosphine hydrochloride solution (TCEP) were purchased from Sigma-Aldrich (St. Louis, MO) at the highest level of purity possible. Bicine buffer solution was purchased from Alfa Aesar (Tewksbury, MA) and compound NSC-617145 was purchased from Tocris (Minneapolis, MN). DNA duplex was synthesized at BGI (Shenzhen, China) and was composed of strand 1 with the sequence 5′-[…]-3′ (SEQ ID NO.: 1) and strand 2 with the sequence 5′-[…]-3′ (SEQ ID NO.: 2). DNA strands were annealed by heating to 95° C. for 5 minutes followed by slow cooling to room temperature. Compounds in 100% DMSO (0.1 μl) were spotted into a 384-well white polystyrene Optiplate-384 (Perkin Elmer; Waltham, MA) assay plate using a LabCyte Echo 550 (Agilent; Santa Clara, CA). DMSO (0.1 μl) was added to columns 12, rows A-H and column 24, rows I-P for the maximum signal control. Compound NSC-617145 (0.1 μl) was added to columns 12, rows I-P and 24, rows A-H for the minimum signal control (100% inhibition). Compounds/DMSO were preincubated for 15 minutes at 25° C. with 5 μl 2×WRN (BV08), prepared as described below, in assay buffer containing 20 mM Bicine (pH=7.5), 1 mM MgCl2, 10 mM KCl, 0.1% Pluronic F-127, 0.005% BSG, 1 mM TCEP. The reaction was initiated by the addition of 5 μl 2× substrate mixture in assay buffer and incubated for 60 minutes at 25° C. The final concentrations of the assay components were 0.15 nM WRN, 5 μM ATP, and 0.1 nM DNA duplex. The final DMSO concentration was 1% and the reference compound concentration (NSC-617145) used for the minimal signal control was 20 μM. The reaction was stopped by the addition of the ADP-Glo Kit components (Promega; Madison, WI) as directed and the relative luminescence units (RLU) were read on an Envision 2104 (Perkin Elmer; Waltham, MA). % inhibition calculation:
Where RLU=relative luminescence units, sample=signal in sample well, and MIN and MAX are the respective minimum and maximum signal controls.
Four-parameter IC50 fit equation:
Where top and bottom are normally allowed to float but may be fixed at 100 or 0 respectively in a 3-parameter fit. Y is the % inhibition and X is the compound concentration.
Molecular Biology and virus production. The DNA encoding human Werner helicase (Uniprot Q14191, amino acids 517-1235 with L1074F point mutation) was generated with codon-optimization for E. coli expression and subcloned into the pFastBac vector with a TEV cleavable 8×His tag (WRN—BV08). The baculovirus from the expression plasmid WRN—BV08 was generated from transfection and amplification following the manufacturer's instructions.
Sf9 cells grown in SF900II media were infected with 1:200 WRN—BV08 P2 virus and incubated for protein expression for 72 h at 27° C. The WRN protein was purified using the following protocol. The cell pellets were thawed and resuspended in buffer A (50 mM Tris, pH 7.5, 500 mM NaCl, 1 mM TCEP, 10% Glycerol) supplemented with 0.5% CHAPS, 1 mM [COMPOUND LEFT OUT], 1 μg/ml Leupeptin, 1 μg/ml Pepstatin, and the Pierce Universal Nuclease and cocktail tablet. Cleared lysates were loaded onto a Ni Sepharose™ excel column and washed with buffer A and bound protein was eluted with buffer A supplemented with 300 mM imidazole. The eluted protein was dialyzed against buffer A and digested by His-tagged TEV (1:5 ratio) overnight at 4° C. ZnCl2 was added into the sample at final 15 μM before loading onto a second Ni Sepharose™ excel column. Untagged WRN protein was eluted from the column with buffer A supplemented with 20 mM imidazole, dialyzed overnight into buffer B (50 mM Tris, pH 7.5, 1 mM TCEP, 10% Glycerol) supplemented with 150 mM NaCl and loaded onto a Heparin column. Proteins were eluted with a step gradient of buffer B supplemented with 150 mM, 200 mM, 300 mM and 500 mM NaCl. […]

[2] = biological target: T2, p21 in HCT116 cells (Homo sapiens, UniProt Q14191); test: p21 induction in HCT116 cells; type: cell-based; details: 24 h, p21/GAPDH signal ratio, % activation vs internal reference WRN inhibitor, read-out: P21_EC50
T2 construct: p21 induction in-cell western, 24 h
T2 sequence (Q14191 whole entry): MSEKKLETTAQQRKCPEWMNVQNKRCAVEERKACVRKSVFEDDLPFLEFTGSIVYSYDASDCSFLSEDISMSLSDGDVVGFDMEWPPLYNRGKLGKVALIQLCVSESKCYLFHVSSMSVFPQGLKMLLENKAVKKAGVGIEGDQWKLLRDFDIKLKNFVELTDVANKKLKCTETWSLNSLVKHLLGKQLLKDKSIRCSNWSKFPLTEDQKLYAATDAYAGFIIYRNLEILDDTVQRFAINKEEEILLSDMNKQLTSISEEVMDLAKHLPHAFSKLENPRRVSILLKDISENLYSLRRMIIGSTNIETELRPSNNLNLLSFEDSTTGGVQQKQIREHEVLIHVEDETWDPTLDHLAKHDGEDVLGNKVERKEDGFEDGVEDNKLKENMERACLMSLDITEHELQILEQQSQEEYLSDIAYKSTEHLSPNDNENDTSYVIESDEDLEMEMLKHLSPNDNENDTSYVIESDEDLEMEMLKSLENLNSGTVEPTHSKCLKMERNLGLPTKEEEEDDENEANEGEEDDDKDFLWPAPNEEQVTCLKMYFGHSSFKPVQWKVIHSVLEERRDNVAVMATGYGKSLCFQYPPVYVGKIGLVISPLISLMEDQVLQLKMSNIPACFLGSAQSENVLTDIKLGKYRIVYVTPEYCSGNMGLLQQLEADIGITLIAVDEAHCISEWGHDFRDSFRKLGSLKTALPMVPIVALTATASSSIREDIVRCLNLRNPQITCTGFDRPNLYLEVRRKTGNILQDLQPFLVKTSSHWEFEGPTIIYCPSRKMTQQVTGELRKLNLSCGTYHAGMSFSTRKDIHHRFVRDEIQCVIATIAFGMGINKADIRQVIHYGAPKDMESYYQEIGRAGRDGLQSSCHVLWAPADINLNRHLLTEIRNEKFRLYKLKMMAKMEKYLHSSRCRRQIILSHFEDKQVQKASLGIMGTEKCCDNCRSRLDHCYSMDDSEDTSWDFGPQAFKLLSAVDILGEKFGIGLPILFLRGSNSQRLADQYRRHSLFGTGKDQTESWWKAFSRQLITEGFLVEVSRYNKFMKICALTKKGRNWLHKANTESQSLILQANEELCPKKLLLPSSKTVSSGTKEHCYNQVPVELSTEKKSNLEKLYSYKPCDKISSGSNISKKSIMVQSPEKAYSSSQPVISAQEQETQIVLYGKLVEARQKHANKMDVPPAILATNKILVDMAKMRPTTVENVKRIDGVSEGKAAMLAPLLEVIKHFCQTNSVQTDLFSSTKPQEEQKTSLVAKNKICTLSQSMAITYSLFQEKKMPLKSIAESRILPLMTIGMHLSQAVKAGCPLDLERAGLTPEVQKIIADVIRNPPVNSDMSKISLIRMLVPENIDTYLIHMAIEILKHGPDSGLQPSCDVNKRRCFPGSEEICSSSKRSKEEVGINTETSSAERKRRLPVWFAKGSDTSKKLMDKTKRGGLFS
Procedure: (§1) Example 3: Method for Determining Effect on p21 Induction in Cells
(§2) The colon carcinoma cell line HCT116 was obtained from ATCC and cultured in growth medium consisting of Mccoy's 5A Medium (Gibco 16600108) supplemented with 10% FBS (Transgene FS201-02) and 100 units/mL penicillin-streptomycin (Gibco 15140122) and maintained at 37° C. under 5% CO2. On the day of seeding, 2,000 cells in 30 μL of culture media were plated per well to Poly-D-Lysine 384 Well Black Clear Plates (Biocoat 356663) and incubated overnight at 37° C. under 5% CO2. The following day, compounds were serially diluted in DMSO for a total of 11 test concentrations. The typical starting concentration of cpds was 10 uM with 2-fold dilutions. Next, 150 nL of diluted compound was added in duplicate to the assay plate, using an Echo 655 (Labcyte). The plate was centrifuged at 500 RPM for 1 min and then incubated at 37° C. under 5% CO2 for 24 h. After 24 h, medium was removed, and cells were fixed by adding 40 μL of 4% paraformaldehyde solution to each well and incubated for 20 min at room temperature. The plate was then washed 4 times with 100 μL per well of wash buffer (PBS with 0.1% Tween-20) using a microplate washer. Next, 30 μL of ice-cold methanol was added to each well and the plate was incubated at −20° C. for 10 min. The plate was washed 4 times with 100 µL per well of wash buffer by a microplate washer, then 30 μL per well of blocking buffer ((Intercept PBS blocking buffer (LI-COR 927-70001) with 0.05% Tween-20)) was added and the plate was incubated at room temperature with shaking for 2 h. Next, to each test well, 20 μL of primary antibody solution ((p21 Waf1/CIP (12D1) Rabbit mAb (Cell Signaling Technologies 2947) diluted 1:1000 and GAPDH (D4C6R) Mouse mAb (Cell Signaling Technologies 97166) diluted 1:2000 in blocking buffer)) was added and the plate was placed at 4° C., overnight. The following day, the plate was washed 5 times with 100 μL per well of wash buffer using a microplate washer for 5 min. 20 μL per well of secondary antibody ((IRDye 680CW Goat anti-Mouse IgG (H+L) (LI-COR 926-68070) diluted 1: 2000 in Blocking Buffer and IRDye 800CW Goat anti-Rabbit IgG (H+L) (LI-COR 926-32211) diluted 1: 2000 in Blocking Buffer)) was then added and the plate was stored for 2 h in the dark at room temperature with shaking. The plate was then washed 4 times with 100 μL per well of wash buffer again using a microplate washer. Finally, the p21 signal and the GAPDH signal were quantified using a LI-COR Odyssey CLx Imager machine reading at 800 nm and 700 nm, respectively. Each plate contained DMSO control (low control) and an internal reference WRN inhibitor (high control) respectively. For quantitation, the 800 nm/700 nm ratio was calculated for each well to give fold p21 induction and then percent activation for each compound well was calculated as follows ((100×(ratio cpd well-ratio low control)/(ratio high control−ratio low control)). EC50 values for each compound was generated after non-linear regression curve fitting using commercially available software.

[3] = p21 induction in HCT116 cells; type: cell-based, human; details: read-out: P21_EC50, 24 h, p21/GAPDH signal ratio, % activation vs internal reference WRN inhibitor
Procedure: as §1, §2

[4] = 0.15 nM WRN, 5 μM ATP, 0.1 nM DNA duplex, pH 7.5, 15 min preincubation, 60 min at 25° C., 1% DMSO, read-out: ADP-Glo_hWRN_IC50

| IC50 [1, 4] [nM] | EC50 [2] [nM] | IC50 [1] [nM] | EC50 [3] [nM] | Compound |
| --- | --- | --- | --- | --- |
| 5 to 50 | 500 to 2000 |  |  | CCc1c(N2CCN(C(=O)c3c(O)ccnc3OC)CC2)c(=O)c2nc(-c3ccnc(OC)c3)sc2n1CC(=O)Nc1ccc(C(F)(F)F)cc1Cl [Compound I-5, N-(2-chloro-4-(trifluoromethyl)phenyl)-2-(5-ethyl-6-(4-(4-hydroxy-2-methoxynicotinoyl)piperazin-1-y1)-2-(2-methoxypyridin-4-y1)-7-oxothiazolo[5,4-b]pyridin-4(7H)-y1)acetamide] |
| 5 to 50 |  |  |  | CCc1c(N2CCN(C(=O)c3ncnc(C)c3O)CC2)c(=O)c2nc(C3=CCOCC3)sc2n1CC(=O)Nc1ccc(C(F)(F)F)cc1Cl [Compound I-3, N-(2-chloro-4-(trifluoromethyl)phenyl)-2-(2-(3,6-dihydro-2H-pyran-4-y1)-5-ethyl-6-(4-(5-hydroxy-6-methylpyrimidine-4-carbonyl)piperazin-1-yl)-7-oxothiazolo[5,4-b]pyridin-4(7H)-yl)acetamide] |
| 5 to 50 | > 5000 |  |  | CCc1c(N2CCN(C(=O)c3ncnc(C)c3O)CC2)c(=O)c2sc(-c3ccnc(OC)c3)nc2n1CC(=O)NC12CC(C(F)(F)F)(C1)C2 [Compound I-8, 2-(5-ethyl-6-(4-(5-hydroxy-6-methylpyrimidine-4-carbonyl)piperazin-1-yl)-2-(2-methoxypyridin-4-y1)-7-oxothiazolo[4,5-b]pyridin-4(7H)-y1)-N-(3-(trifluoromethyl)bicyclo[1.1.1]pentan-1-yl)acetamide] |
|  |  | 5 to 50 | 500 to 2000 | C=C(C)c1nc2c(=O)c(N3CCN(C(=O)c4ncnc(C)c4O)CC3)c(CC)n(CC(=O)Nc3ccc(C(F)(F)F)cc3Cl)c2s1 [Compound I-6, N-(2-chloro-4-(trifluoromethyl)phenyl)-2-(5-ethyl-6-(4-(5-hydroxy-6-methylpyrimidine-4-carbonyl)piperazin-1-yl)-7-oxo-2-(prop-1-en-2-yl)thiazolo[5,4-b]pyridin-4(7H)-yl)acetamide] |
| 5 to 50 | 500 to 2000 |  |  | CCc1c(N2CCN(C(=O)c3ncnc(C)c3O)CC2)c(=O)c2nc(-c3ccnc(OC)c3)sc2n1CC(=O)Nc1ccc(C(F)(F)F)cc1Cl [Compound I-1, N-(2-chloro-4-(trifluoromethyl)phenyl)-2-(5-ethyl-6-(4-(5-hydroxy-6-methylpyrimidine-4-carbonyl)piperazin-1-yl)-2-(2-methoxypyridin-4-yl)-7-oxothiazolo[5,4-b]pyridin-4(7H)-yl)acetamide] |
| 5 to 50 | 2000 to 5000 |  |  | CCc1c(N2CCN(C(=O)c3ncnc(C)c3O)CC2)c(=O)c2nc(N3CCCC3)sc2n1CC(=O)Nc1ccc(C(F)(F)F)cc1Cl [Compound I-4, N-(2-chloro-4-(trifluoromethyl)phenyl)-2-(5-ethyl-6-(4-(5-hydroxy-6-methylpyrimidine-4-carbonyl)piperazin-1-yl)-7-oxo-2-(pyrrolidin-1-yl)thiazolo[5,4-b]pyridin-4(7H)-yl)acetamide] |
| 5 to 50 |  |  |  | CCc1c(N2CCN(C(=O)c3ncnc(C)c3O)CC2)c(=O)c2nc(-c3cnn(C)c3)sc2n1CC(=O)Nc1ccc(C(F)(F)F)cc1Cl [1-7] |
|  | 2000 to 5000 |  |  | CCc1c(N2CCN(C(=O)c3ncnc(C)c3O)CC2)c(=O)c2nc(C3=CCOCC3)sc2n1CC(=O)Nc1ccc(C(F)(F)F)cc1Cl [1-3] |
|  | > 5000 |  |  | CCc1c(N2CCN(C(=O)c3ncnc(C)c3O)CC2)c(=O)c2nc(-c3cnn(C)c3)sc2n1CC(=O)Nc1ccc(C(F)(F)F)cc1Cl [Compound I-7, N-(2-chloro-4-(trifluoromethyl)phenyl)-2-(5-ethyl-6-(4-(5-hydroxy-6-methylpyrimidine-4-carbonyl)piperazin-1-y1)-2-(1-methyl-1H-pyrazol-4-y1)-7-oxothiazolo[5,4-b]pyridin-4(7H)-yl)acetamide] |
| < 5 | < 500 |  |  | CCc1c(N2CCN(C(=O)c3ncnc(C)c3O)CC2)c(=O)c2sc(-c3ccnc(OC)c3)nc2n1CC(=O)Nc1ccc(C(F)(F)F)cc1Cl [Compound I-2, N-(2-chloro-4-(trifluoromethyl)phenyl)-2-(5-ethyl-6-(4-(5-hydroxy-6-methylpyrimidine-4-carbonyl)piperazin-1-yl)-2-(2-methoxypyridin-4-y1)-7-oxothiazolo[4,5-b]pyridin-4(7H)-yl)acetamide] |
